{"source": "patent US7943606B2", "about": "“Compositions and methods to control abnormal cell growth” (CanCure Laboratories, LLC, priority 2005, dated 2011)", "type_in_all_cases": "cell-based, human", "key": {"AN3CA cells": {"tested_on": "AN3CA cells", "assay": "Viability of AN3CA endometrial adenocarcinoma cells (MTT assay)", "conditions": "100 μM, 72 hours", "protocol": "(§1) To quantify cell death, around the time when significant and characteristic morphological changes took place, cells were pulse-labeled for 10 minutes with [^3H]thymidine to measure DNA activity as described elsewhere [Tomono, M. and Kiss, Z. (1995), “Ethanol enhances the stimulatory effects of insulin and insulin-like growth factor-I on DNA synthesis in NIH 3T3 fibroblasts,” Biochem. Biophys. Res. Commun. 208, 63-67]. Also, cells were collected as suspensions using trypsin, an established method in cell biology, followed by re-plating of cells in fresh tissue culture medium. If no viable cells were obtained after one week in culture, it meant that the cells at the time of re-plating were dead. Survival values obtained with untreated cells were considered 100%. For the determination of relative number of viable cells after treatments, in most cases the MTT assay was used. This calorimetric assay is based on the ability of living cells, but not dead cells, to reduce 3-(4,5-dimethyl thiazol-2-yl)-2,5-diphenyltetrazolium bromide [Carmichael, J, De Graff, W. G., Gazdar, A. F., Minna, J. D. and Mitchell, J. B. (1987), “Evaluation of tetrazolium-based semi-automated calorimetric assay: Assessment of chemosensitivity testing,” Cancer Res. 47, 936-942]. For this assay, cells were plated in 96-well plates, and the MTT assay was performed both in untreated and treated cell cultures. […]"}, "CCF-STTG1 cells": {"tested_on": "CCF-STTG1 cells", "assay": "Viability of CCF-STTG1 astrocytoma cells (MTT assay)", "conditions": "100-200 μM, 72 hours", "protocol": "as §1"}, "HTB-157 cells": {"tested_on": "HTB-157 cells", "assay": "Viability of HTB-157 fetal (normal) fibroblasts", "protocol": "(§2) To quantify cell death, around the time when significant and characteristic morphological changes took place, cells were pulse-labeled for 10 minutes with [^3H]thymidine to measure DNA activity as described elsewhere [Tomono, M. and Kiss, Z. (1995), “Ethanol enhances the stimulatory effects of insulin and insulin-like growth factor-I on DNA synthesis in NIH 3T3 fibroblasts,” Biochem. Biophys. Res. Commun. 208, 63-67]. Also, cells were collected as suspensions using trypsin, an established method in cell biology, followed by re-plating of cells in fresh tissue culture medium. If no viable cells were obtained after one week in culture, it meant that the cells at the time of re-plating were dead. Survival values obtained with untreated cells were considered 100%. For the determination of relative number of viable cells after treatments, in most cases the MTT assay was used. This calorimetric assay is based on the ability of living cells, but not dead cells, to reduce 3-(4,5-dimethyl thiazol-2-yl)-2,5-diphenyltetrazolium bromide [Carmichael, J, De Graff, W. G., Gazdar, A. F., Minna, J. D. and Mitchell, J. B. (1987), “Evaluation of tetrazolium-based semi-automated calorimetric assay: Assessment of chemosensitivity testing,” Cancer Res. 47, 936-942]. For this assay, cells were plated in 96-well plates, and the MTT assay was performed both in untreated and treated cell cultures. The MTT assay also was performed at the start of treatments to allow assessment of proliferation rates in the control and treated cell cultures.\n(§3) NIH3T3, T47D, A-431, HT-29, and MEL-28 cells were cultured as indicated earlier. CaOV-3 human ovarian cancer cells were cultured in DMEM containing 10% FBS. ZR-75-1 human estrogen receptor-positive breast cancer cells were maintained in RPMI 1640 medium supplemented with 10% FBS. HTB-157 human fetal fibroblasts, MEL-24 human malignant melanoma cells, Hep G2 human hepatoblastoma cells, and CaCO-2 human colon adenocarcinoma cells were maintained in Eagles's MEM containing 10% FBS. MB-231 human estrogen receptor-negative breast cancer cells were maintained in Leibovitz's L-15 medium supplemented with 10% FBS. Cells were seeded into 96-well plates and treated at ˜70-90% confluency. Two hours prior to treatments the medium was changed for fresh 10% serum medium, and then the cells were incubated for 10 days in the absence (□) or presence of 50 μM CCDTHT ? or 100 μM CCDTHT (▪). The medium was changed and the cells were re-treated on days 3 and 6. The MTT assay was used to determine cell viability on day 10. The data, shown in FIG. 6, are the mean±std. dev. of 8 incubations in one experiment. (The experiment was repeated twice with similar results).\n(§4) HTB-157, MEL-28, CaOV-3, T47D, and A-431 cells were maintained as indicated earlier. The 3A-SubE post crisis placenta cells (capable of unlimited proliferation) were maintained in Eagle's MEM containing 10% FBS. Cells were seeded into 96-well plates and treated at ˜70-90% confluency. Two hours before treatments the medium was changed for fresh 10% serum medium, and then cells were incubated for 48 hours in the absence (□) or presence of 50 μM CCDTHT ? or 100 μM CCDTHT (▪). Half of the cultures was analyzed by the MTT assay at this point, and the other half of the cultures was incubated for an additional 96 hours in fresh 10% serum-containing medium without CCDTHT followed by the MTT assay. The data, shown in FIG. 8, are the mean±std. dev. of 8 incubations in one experiment. (Similar results were obtained in another experiment).\n(§5) HaCaT keratinocytes, frequently used immortalized model cells for studying psoriatic keratinocytes, and HTB-157 human fetus lung fibroblasts were cultured in 10% FBS-containing Dulbecco's modified Eagle's medium (DMEM). […]"}, "[1]": {"assay": "Viability of HTB-157 fetal (normal) fibroblasts", "conditions": "human, MTT", "protocol": "as §2, §3, §4, §5"}}}
{"compound": "CC[N+](C)(CC)CCOCc1ccc2sc3ccccc3c(=O)c2c1.[I-]", "note": "[CCDTHT, N,N-diethyl-N-methyl-2-[(9-oxo-9H-thioxanthen-2-yl)methoxy]-ethanaminium iodide]", "values": [{"measurement": "decrease in the number of viable cells versus 0.5 mM HC-3, AN3CA", "setting": "AN3CA cells", "value": "much greater decreases in the number of viable cells compared to 0.5 mM HC-3"}, {"measurement": "number of viable CCF-STTG1 cells", "setting": "CCF-STTG1 cells", "value": "sharply decrease"}, {"measurement": "reversibility: proliferation in fresh medium after treatment, HTB-157", "setting": "HTB-157 cells; 100 μM 48 hours, then 96 hours without CCDTHT", "value": "clearly resumed proliferation"}, {"measurement": "decrease in DNA synthesis, HTB-157 fibroblasts", "setting": "HTB-157 cells; 100 μM, 48 hours", "value": "about 16%"}, {"measurement": "numbers of re-plated untreated and treated HTB-157 fibroblasts", "setting": "HTB-157 cells; 100 μM, re-plated after treatment", "value": "practically no difference"}, {"measurement": "decrease in viability of HTB-157 fibroblasts", "setting": "HTB-157 cells; 50-100 μM, 48 hours, MTT", "value": "19-20%"}, {"measurement": "sensitivity compared with HaCaT cells, HTB-157 fibroblasts", "setting": "HTB-157 cells; 50 and 100 μM, 72 hours, MTT", "value": "significantly less sensitive"}, {"measurement": "cytotoxicity at 10 days, 100 μM", "setting": "[1]; HTB-157 fetal (normal) fibroblasts, 100 μM, 10 days, read-out: reduction in the number of viable cells, HTB-157", "value": "≤ 50", "unit": "%"}, {"measurement": "cytotoxicity at 48 h", "setting": "[1]; HTB-157 fetal lung (normal) fibroblasts, 50-100 μM, 48 hours, read-out: decrease in viability of HTB-157 fibroblasts", "value": "20 to 22", "unit": "%"}]}
